From the Kinase Knowledgebase extract (Sharma et al. 2016)

target: ROCK2 (human) (UniProt O75116); assay: Assessment of ROCK2 Kinase Activity
Sequence (O75116 whole entry, looked up): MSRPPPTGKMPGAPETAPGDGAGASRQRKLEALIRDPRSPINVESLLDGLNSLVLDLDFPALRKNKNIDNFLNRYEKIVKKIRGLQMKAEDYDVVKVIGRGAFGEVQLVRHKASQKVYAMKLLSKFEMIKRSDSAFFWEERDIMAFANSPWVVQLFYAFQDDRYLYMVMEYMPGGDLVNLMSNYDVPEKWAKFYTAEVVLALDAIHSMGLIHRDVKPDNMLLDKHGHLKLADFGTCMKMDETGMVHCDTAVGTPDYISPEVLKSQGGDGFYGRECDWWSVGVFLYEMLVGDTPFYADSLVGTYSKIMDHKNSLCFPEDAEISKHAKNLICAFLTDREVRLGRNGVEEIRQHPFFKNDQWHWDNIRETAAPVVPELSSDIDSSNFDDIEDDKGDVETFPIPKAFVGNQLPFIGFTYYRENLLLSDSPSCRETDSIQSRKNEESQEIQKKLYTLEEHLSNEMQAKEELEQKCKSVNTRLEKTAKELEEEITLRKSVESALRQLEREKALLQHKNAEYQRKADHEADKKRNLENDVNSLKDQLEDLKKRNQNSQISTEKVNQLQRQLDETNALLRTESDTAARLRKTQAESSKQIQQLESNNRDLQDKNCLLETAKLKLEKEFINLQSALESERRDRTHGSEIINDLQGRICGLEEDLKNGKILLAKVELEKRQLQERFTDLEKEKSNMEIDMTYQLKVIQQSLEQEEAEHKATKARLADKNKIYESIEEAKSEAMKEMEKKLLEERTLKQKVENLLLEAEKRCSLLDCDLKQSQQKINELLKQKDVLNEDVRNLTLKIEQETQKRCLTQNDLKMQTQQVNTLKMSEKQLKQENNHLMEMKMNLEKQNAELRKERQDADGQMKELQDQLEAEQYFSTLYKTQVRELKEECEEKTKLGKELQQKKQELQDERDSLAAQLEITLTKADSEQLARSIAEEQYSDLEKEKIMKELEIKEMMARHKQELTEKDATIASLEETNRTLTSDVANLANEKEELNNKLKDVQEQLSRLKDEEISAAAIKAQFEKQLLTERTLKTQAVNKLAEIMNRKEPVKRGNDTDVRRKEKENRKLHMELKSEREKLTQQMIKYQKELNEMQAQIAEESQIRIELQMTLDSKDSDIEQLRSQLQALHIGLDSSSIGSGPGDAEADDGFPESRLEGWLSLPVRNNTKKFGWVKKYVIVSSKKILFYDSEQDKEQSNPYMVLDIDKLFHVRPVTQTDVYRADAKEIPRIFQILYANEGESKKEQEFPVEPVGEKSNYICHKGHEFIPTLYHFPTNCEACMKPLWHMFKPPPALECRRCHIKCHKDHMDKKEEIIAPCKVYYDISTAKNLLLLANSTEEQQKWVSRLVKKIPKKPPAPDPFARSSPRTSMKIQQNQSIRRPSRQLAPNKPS

SMILES	IC50
O=C(CC1CCNCC1)N[C@H]1CC[C@@H](Oc2cc3cc[nH]c(=O)c3cc2Cl)CC1	≤ 1000 nM
NC1CC(Oc2cc3cc[nH]c(=O)c3cc2Cl)C1 (centres undefined)	≤ 1000 nM
O=c1[nH]ccc2cc(O[C@H]3CC[C@H](N4CCOCC4)CC3)c(Cl)cc12	≤ 1000 nM
N[C@@H]1CC[C@H](Oc2ccc3c(=O)[nH]ccc3c2)C1	≤ 1000 nM
O=c1[nH]ccc2cc(O[C@H]3CC[C@H](N4CCCC4)CC3)c(Cl)cc12	≤ 1000 nM
O=c1[nH]ccc2cc(O[C@H]3CC[C@@H](N4CCOCC4)CC3)c(Cl)cc12	≤ 1000 nM
O=c1[nH]ccc2cc(O[C@H]3CC[C@@H](N4CCCC4)CC3)c(Cl)cc12	≤ 1000 nM
O=C(CCC1CCNCC1)N[C@H]1CC[C@@H](Oc2cc3cc[nH]c(=O)c3cc2Cl)CC1	≤ 1000 nM
N[C@H]1CCC[C@@H](Oc2cc3cc[nH]c(=O)c3cc2Cl)CC1	≤ 1000 nM
NC(=O)C1CCN(C2CCC(Oc3cc4cc[nH]c(=O)c4cc3Cl)CC2)CC1 (centres undefined)	≤ 1000 nM
O=c1[nH]ccc2cc(OC3CCC(N4CCCCC4)CC3)c(Cl)cc12 (centres undefined)	≤ 1000 nM
N[C@H]1C[C@H](COc2cc3cc[nH]c(=O)c3cc2Cl)C1	≤ 1000 nM

Other lines, results leading:

IC50	SMILES
≤ 1000 nM	CCC[C@]1(N)CCC[C@H](Oc2cc3cc[nH]c(=O)c3cc2Cl)CCC1
≤ 1000 nM	Cc1cc2c(=O)[nH]ccc2cc1O[C@@H]1CCC[C@H](N)CC1
≤ 1000 nM	N[C@H]1CC[C@H](Oc2cc3cc[nH]c(=O)c3cc2Cl)C1
≤ 1000 nM	O=C(O)CN[C@H]1CC[C@@H](Oc2cc3cc[nH]c(=O)c3cc2Cl)CC1
≤ 1000 nM	CCC[C@]1(N)CCC[C@@H](Oc2cc3cc[nH]c(=O)c3cc2Cl)CCC1
≤ 1000 nM	CN1CCN([C@H]2CC[C@@H](Oc3cc4cc[nH]c(=O)c4cc3Cl)CC2)CC1
≤ 1000 nM	CN1CCN([C@H]2CC[C@H](Oc3cc4cc[nH]c(=O)c4cc3Cl)CC2)CC1
